Converted amounts (≈) assume the structure as drawn. “Also recorded” adds a separate entry of the source. Counter-ions that a name gives are not always drawn. Like-named read-outs stand apart in the source and are kept apart here.
What was measured:
[1] = tested on: lymphocyte proliferation, cells from the thymus of normal BALB/c mice (PHA and IL-1); assay: comitogen-induced thymocyte proliferation procedure (LAF); type: cell-based; settings: for LAF (ratio): thymocytes 72 hours with PHA and IL-1, rapamycin 1.0
Procedure: (§1) Immunosuppressive activity was evaluated in an in vitro standard pharmacological test procedure to measure lymphocyte proliferation (LAF) and in two in vivo standard pharmacological test procedures. The first in vivo procedure was a popliteal lymph node (PLN) test procedure which measured the effect of compounds of this invention on a mixed lymphocyte reaction and the second in vivo procedure evaluated the survival time of a pinch skin graft.
Briefly, cells from the thymus of normal BALB/c mice are cultured for 72 hours with PHA and IL-1 and pulsed with tritiated thymidine during the last six hours. […] Cells are harvested and incorporated; radioactivity is determined. inhibition of lymphoproliferation is assessed in percent change in counts per minute from non-drug treated controls. The results are expressed by the following ratio: [formula]

pinch skin graft = assay: survival time of pinch skin graft; type: in vivo, mouse (male DBA/2 donors, male BALB/c recipients); settings: intraperitoneally, mean graft survival time ± S.D.
Procedure: as §1
The second in vivo test procedure is designed to determine the survival time of pinch skin graft from male DBA/2 donors transplanted to male BALB/c recipients. The method is adapted from Billingham R. E. and Medawar P. B., J. Exp. Biol. 28:385-402, (1951). Briefly, a pinch skin graft from the donor is grafted on the dorsum of the recipient as a homograft, and an autograft is used as control in the same region. […] Untreated recipients serve as rejection control. The graft is monitored daily and observations are recorded until the graft becomes dry and forms a blackened scab. This is considered as the rejection day. The mean graft survival time (number of days±S.D.) of the drug treatment group is compared with the control group.

[2] = tested on: 5 strains of Candida albicans; assay: antifungal plate test procedure, 5 strains (overall); type: cell-based; settings: not evaluated; considered because of structural similarity
Procedure: (§2) The following represents the typical procedure used. Compound to be tested was placed on sterile dried 1/4" plate disks, and allowed to dry. Agar plates were seeded with fungi and allowed to solidify. The impregnated disks were placed on the seeded Agar surface and incubated for the time required for the particular culture. Results are expressed in MIC (μg/ml) to inhibit growth.

Candida albicans 3669 = assay: antifungal plate test procedure; type: cell-based
Procedure: as §2

[3] = tested on: Candida albicans ATCC 10231; assay: antifungal plate test procedure; type: cell-based
Procedure: as §2

[4] = tested on: Candida albicans ATCC 38246; assay: antifungal plate test procedure; type: cell-based
Procedure: as §2

[5] = tested on: Candida albicans ATCC 38247; assay: antifungal plate test procedure; type: cell-based
Procedure: as §2

[6] = tested on: Candida albicans ATCC 38248; assay: antifungal plate test procedure; type: cell-based
Procedure: as §2

[7] = tested on: mixed lymphocyte reaction, popliteal lymph node; assay: popliteal lymph node (PLN) test procedure, in vivo mixed lymphocyte reaction; parameters: species or system mouse (BALB/c donors, C3H recipients); settings: p.o. daily Day 0 to Day 4, carboxymethyl cellulose vehicle; rapamycin 1.0
Procedure: as §1
A mixed lymphocyte reaction (MLR) occurs when lymphoid cells from genetically distinct animals are combined in tissue culture. Each stimulates the other to undergo blast transformation which results in increased DNA synthesis that can be quantified by the incorporation of tritiated thymidine. Since stimulating a MLR is a function of disparity at Major Histocompatibility antigens, an in vivo popliteal lymph node (PLN) test procedure closely correlates to host vs. graft disease. Briefly, irradiated spleen cells from BALB/c donors are injected into the right hind foot pad of recipient C3H mice. The drug is given daily, p.o. from Day 0 to Day 4. On Day 3 and Day 4, tritiated thymidine is given i.p., b.i.d. On Day 5, the hind popliteal lymph nodes are removed and dissolved, and radioactivity counted. […] Percent suppression is calculated using the non-drug treated animals as allogenic control.

Candida albicans = settings: in vitro and in vivo; cited from earlier work
transplant rejection = settings: cited from earlier work
[8] = in vivo; cited from earlier work
[9] = Candida albicans, 3669, strain 3669, read-out: MIC
[10] = Candida albicans, ATCC10231, ATCC 10231, read-out: MIC
[11] = Candida albicans, ATCC38246, ATCC 38246, read-out: MIC
[12] = Candida albicans, ATCC38247, ATCC 38247, read-out: MIC
[13] = Candida albicans, ATCC38248, ATCC 38248, read-out: MIC

| Compound | Skin Graft (days + SD), mean graft survival time (pinch skin graft) | LAF (ratio) [1] | MIC (Candida albicans 3669; [9]) | MIC [3, 10] | MIC [4, 11] | MIC [5, 12] | MIC [6, 13] | other results |
| --- | --- | --- | --- | --- | --- | --- | --- | --- |
| COC(=O)CCC(=O)O[C@@H]1CC[C@@H](C[C@@H](C)[C@@H]2CC(=O)[C@H](C)/C=C(\C)[C@@H](O)[C@@H](OC)C(=O)[C@H](C)C[C@H](C)/C=C/C=C/C=C(\C)[C@@H](OC)C[C@@H]3CC[C@@H](C)[C@@](O)(O3)C(=O)C(=O)N3CCCC[C@H]3C(=O)O2)C[C@H]1OC [Example 12, Rapamycin-42-monomethylsuccinate] | 10.8 ± 0.4 days | – | – | – | – | – | – | inhibition at 0.1 µM ([1]; Mus musculus, Lymphocyte, percent inhibition at 100 nM): 97%; antifungal activity [2]: considered to have antifungal activity |
| CO[C@H]1C[C@@H]2CC[C@@H](C)[C@@](O)(O2)C(=O)C(=O)N2CCCC[C@H]2C(=O)O[C@H]([C@H](C)C[C@@H]2CC[C@@H](OC(=O)CCC(=O)OCc3ccc(C(F)(F)F)cc3)[C@H](OC)C2)CC(=O)[C@H](C)/C=C(\C)[C@@H](O)[C@@H](OC)C(=O)[C@H](C)C[C@H](C)/C=C/C=C/C=C/1C [Example 13, Rapamycin-42-(4-trifluoromethylbenzyl)succinate] | 10.6 ± 0.9 days | 2.11 | – | – | – | – | – | antifungal activity [2]: considered to have antifungal activity |
| CO[C@H]1C[C@@H]2CC[C@@H](C)[C@@](O)(O2)C(=O)C(=O)N2CCCC[C@H]2C(=O)O[C@H]([C@H](C)C[C@@H]2CC[C@@H](OC(=O)CCC(=O)OCc3ccccc3)[C@H](OC)C2)CC(=O)[C@H](C)/C=C(\C)[C@@H](OC(=O)CCC(=O)OCc2ccccc2)[C@@H](OC)C(=O)[C@H](C)C[C@H](C)/C=C/C=C/C=C/1C [Example 2, Rapamycin-31,42-bis(monobenzylsuccinate)] | 10.7 ± 1.2 days | 0.9 | 0.4 µg/mL (≈ 0.309 µM) | > 0.4 µg/mL | 0.4 µg/mL (≈ 0.309 µM) | > 0.4 µg/mL | 0.4 µg/mL (≈ 0.309 µM) | – |
| CO[C@H]1C[C@@H]2CC[C@@H](C)[C@@](O)(O2)C(=O)C(=O)N2CCCC[C@H]2C(=O)O[C@H]([C@H](C)C[C@@H]2CC[C@@H](OC(=O)COCC(=O)O)[C@H](OC)C2)CC(=O)[C@H](C)/C=C(\C)[C@@H](OC(=O)COCC(=O)O)[C@@H](OC)C(=O)[C@H](C)C[C@H](C)/C=C/C=C/C=C/1C [Example 9, Rapamycin-31,42-bishemi-3'-oxoglutarate disodium salt] | – | – | – | – | – | – | – | LAF (ratio) ([1]; disodium salt): 0.22; Skin Graft (days + SD), mean graft survival time (pinch skin graft; disodium salt): 10.2 ± 1.2 days; MIC (Candida albicans 3669; strain 3669): > 0.4 µg/mL; MIC ([3]; ATCC 10231, disodium salt): 0.2 µg/mL; MIC ([4]; ATCC 38246): > 0.4 µg/mL; MIC ([5]; ATCC 38247, disodium salt): 0.2 µg/mL; MIC ([6]; ATCC 38248, disodium salt): 0.4 µg/mL |
| CO[C@H]1C[C@@H]2CC[C@@H](C)[C@@](O)(O2)C(=O)C(=O)N2CCCC[C@H]2C(=O)O[C@H]([C@H](C)C[C@@H]2CC[C@@H](OC(=O)CCCC(=O)O)[C@H](OC)C2)CC(=O)[C@H](C)/C=C(\C)[C@@H](OC(=O)CCCC(=O)O)[C@@H](OC)C(=O)[C@H](C)C[C@H](C)/C=C/C=C/C=C/1C [Example 4, Rapamycin-31,42-bishemiglutarate] | 10.2 ± 1.7 days | 0.56 | 0.4 µg/mL (≈ 0.35 µM) | > 0.4 µg/mL | 0.2 µg/mL (≈ 0.175 µM) | > 0.4 µg/mL | 0.2 µg/mL (≈ 0.175 µM) | – |
| CO[C@H]1C[C@@H]2CC[C@@H](C)[C@@](O)(O2)C(=O)C(=O)N2CCCC[C@H]2C(=O)O[C@H]([C@H](C)C[C@@H]2CC[C@@H](OC(=O)COCC(=O)O)[C@H](OC)C2)CC(=O)[C@H](C)/C=C(\C)[C@@H](O)[C@@H](OC)C(=O)[C@H](C)C[C@H](C)/C=C/C=C/C=C/1C [Example 7, Rapamycin-42-hemi-3'-oxoglutarate] | 12.0 ± 1.0 days | 0.97 | 0.2 µg/mL (≈ 0.194 µM) | 0.1 µg/mL (≈ 0.0971 µM) | 0.4 µg/mL (≈ 0.388 µM) | 0.1 µg/mL (≈ 0.0971 µM) | 0.1 µg/mL (≈ 0.0971 µM) | – |
| CO[C@H]1C[C@@H]2CC[C@@H](C)[C@@](O)(O2)C(=O)C(=O)N2CCCC[C@H]2C(=O)O[C@H]([C@H](C)C[C@@H]2CC[C@@H](OC(=O)CCC(=O)OCc3ccccc3)[C@H](OC)C2)CC(=O)[C@H](C)/C=C(\C)[C@@H](O)[C@@H](OC)C(=O)[C@H](C)C[C@H](C)/C=C/C=C/C=C/1C [Example 3, Rapamycin-42-(monobenzylsuccinate)] | 12.7 ± 0.9 days | 3.27 | 0.1 µg/mL (≈ 0.0905 µM) | 0.2 µg/mL (≈ 0.181 µM) | 0.1 µg/mL (≈ 0.0905 µM) | 0.4 µg/mL (≈ 0.362 µM) | 0.1 µg/mL (≈ 0.0905 µM) | – |
| CO[C@H]1C[C@@H]2CC[C@@H](C)[C@@](OC(=O)CCC(=O)OCc3ccccc3)(O2)C(=O)C(=O)N2CCCC[C@H]2C(=O)O[C@H]([C@H](C)C[C@@H]2CC[C@@H](OC(=O)CCC(=O)OCc3ccccc3)[C@H](OC)C2)CC(=O)[C@H](C)/C=C(\C)[C@@H](OC(=O)CCC(=O)OCc2ccccc2)[C@@H](OC)C(=O)[C@H](C)C[C@H](C)/C=C/C=C/C=C/1C [Example 1, Rapamycin-14,31,42-tris(monobenzylsuccinate)] | 8.2 ± 1.2 days | 0.37 | > 0.4 µg/mL | > 0.4 µg/mL | > 0.4 µg/mL | > 0.4 µg/mL | > 0.4 µg/mL | – |
| CO[C@H]1C[C@@H]2CC[C@@H](C)[C@@](O)(O2)C(=O)C(=O)N2CCCC[C@H]2C(=O)O[C@H]([C@H](C)C[C@@H]2CC[C@@H](O)[C@H](OC)C2)CC(=O)[C@H](C)/C=C(\C)[C@@H](O)[C@@H](OC)C(=O)[C@H](C)C[C@H](C)/C=C/C=C/C=C/1C [Rapamycin] | – | – | – | – | – | – | – | PLN (ratio) [7]: 1.0; antifungal activity (Candida albicans): found to have antifungal activity, particularly against Candida albicans, both in vitro and in vivo; immunosuppressive effect (transplant rejection): immunosuppressive effects; usefulness in preventing or treating disease [8]: systemic lupus erythematosus; also recorded: pulmonary inflammation; also recorded: insulin dependent diabetes mellitus; also recorded: smooth muscle cell proliferation and intimal thickening following vascular injury; also recorded: ocular inflammation |

Reference: patent US5378696A, “Rapamycin esters” (American Home Products Corporation, priority 1993, dated 1995)
